Patent US20260132125A1, “PESTICIDALLY ACTIVE FUSED BICYCLIC HETEROAROMATIC COMPOUNDS” (priority 2022, published 2026)

Key:
Type in all cases: in vivo
Chilo suppressalis = experiment: Example B1: activity against Chilo suppressalis (striped rice stemborer), artificial diet; conditions: for percent control (mortality, anti-feedant effect or growth inhibition) at 200 ppm: 144 h, L2 larvae, 6 days after infestation, read-out: control (at least one of mortality, anti-feedant effect, growth inhibition)
Procedure, shortened: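 Scoring covers mortality, anti-feedant effect and growth inhibition at 6 days post-infestation, relative to untreated diet, with activity defined as at least one category above untreated. Test solutions were aqueous, made from 10'000 ppm DMSO stocks, and applied to artificial diet before drying and infestation with L2 larvae.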

Plutella xylostella [1] = experiment: Example B5: activity against Plutella xylostella (diamond back moth), artificial diet, eggs; conditions: 192 h, 8 days after infestation, read-out: effect in at least one of the two categories (mortality or growth inhibition)
Procedure, shortened: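 Artificial diet in 24-well plates was treated with aqueous dilutions of DMSO stocks, dried, then infested with Plutella eggs. Mortality and growth inhibition were scored against untreated samples 8 days after infestation; application rate 200 ppm.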

Spodoptera littoralis = experiment: Example B6: activity against Spodoptera littoralis (Egyptian cotton leaf worm), cotton leaf discs; conditions: foliar; for percent control (mortality, anti-feedant effect or growth inhibition) at 200 ppm: 72 h, L1 larvae, 3 days after infestation, read-out: control (at least one of mortality, anti-feedant effect, growth inhibition)
Procedure, shortened: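 Leaf discs on agar; spray, aqueous dilution of 10′000 ppm DMSO stock; dry; 5 L1 larvae/disc. Read at 3 d post-infestation: mortality, antifeedant, growth inhibition vs untreated. Control = ≥1 category above untreated.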

Plutella xylostella [2] = experiment: B14b: Plutella xylostella (diamond back moth), larvicide L3, feeding/contact, Chinese cabbage
Source text: (§1) Activity of compounds P5, P17 and P21 according to the preparatory examples and of a compound from WO 21/083936 against Spodoptera littoralis (Example B6 above), Chilo suppressalis (Example B1 above), Diabrotica balteata (Example B14a below), Plutella xylostella (Example B14b below) and Pseudoplusia includens (Example B9 above) is summarized in Table B14. B14a: Diabrotica balteata (Corn root worm). Larvicide, feeding/contact 3 Corn seedlings were placed on wetted filter paper in plastic cups, and 3 ml of diluted test solutions were pipetted onto them. The cups were infested with 10 L2 larvae and checked for mortality and growth regulation 5 days after treatment. B14b: Plutella xylostella (Diamond back moth). Larvicide L3, feeding/contact Chinese cabbage plants were sprayed with diluted test solutions in an application chamber. Cut off leaves were placed into petri dishes with wetted filter paper and infested 1 day after application with 10 L3 larvae. Samples were assessed 4 days after infestation for mortality and growth regulation.

Diabrotica balteata [3] = experiment: B14a: Diabrotica balteata (corn root worm), larvicide, feeding/contact, corn seedlings
Source text: as §1

Myzus persicae [4] = experiment: Example B4: activity against Myzus persicae (green peach aphid), intrinsic activity; conditions: 120 h, test rate 12 ppm, 5 days after infestation
Procedure, shortened: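 Compounds from 10′000 ppm DMSO stocks were mixed into sucrose solution in 24-well plates sealed with Parafilm. Aphid-infested pea seedlings were set on the membrane and the plate inverted so aphids fed through it. Mortality scored 5 days after infestation.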

Diabrotica balteata [5] = experiment: Example B2: activity against Diabrotica balteata (corn root worm), maize sprouts; conditions: 96 h, L2 larvae, 4 days after infestation, read-out: effect in at least one of the two categories (mortality or growth inhibition)
Procedure, shortened: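 Maize sprouts on agar were sprayed with aqueous test solutions made from 10′000 ppm DMSO stocks, dried, then infested with 6–10 L2 larvae per well. Mortality and growth inhibition were scored against untreated samples 4 days after infestation, at an application rate of 200 ppm.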

Euschistus heros = experiment: Example B3: activity against Euschistus heros (neotropical brown stink bug), soybean leaves; conditions: for percent effect (mortality or growth inhibition) at 200 ppm: 120 h, N2 nymphs, 5 days after infestation, read-out: effect in at least one of the two categories (mortality or growth inhibition)
Procedure, shortened: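 Soybean leaves on agar sprayed with aqueous dilutions of DMSO stock (10′000 ppm), dried, then infested with N2 nymphs. Mortality and growth inhibition scored against untreated samples 5 days after infestation; application rate 200 ppm.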

Pseudoplusia includens = experiment: Example B9: Pseudoplusia includens (soybean looper), larvicide, feeding/contact, soybean plants; conditions: Chrysodeixis includens; for percent effect (mortality or growth inhibition) at 50 ppm: 120 h, L2 larvae, 5 days after infestation, read-out: effect in at least one of the two categories (mortality or growth inhibition)
Procedure, shortened: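 Soybean plants sprayed, cut and held in dishes on wet filter paper; infested 1 d after application with 5 L2 larvae. Mortality and growth inhibition assessed 5 days after infestation; tested at 50 ppm.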

Tetranychus urticae = experiment: Example B8: activity against Tetranychus urticae (two-spotted spider mite), bean leaf discs; conditions: foliar, 192 h, mixed population (mobile stages), 8 days after infestation
Description: Bean leaf discs on agar in 24-well microtiter plates were sprayed with aqueous test solutions prepared from 10′000 ppm DMSO stock solutions. After drying the leaf discs were infested with a mite population of mixed ages. The samples were assessed for mortality on mixed population (mobile stages) 8 days after infestation.

[6] = test system: Carpocapsa (Cydia) pomonella; experiment: Example B10: Carpocapsa (Cydia) pomonella (codling moth), larvicide, feeding/contact, diet cubes; conditions: 336 h, L1 larvae, 14 days after infestation, read-out: effect in at least one of the two categories (mortality or growth inhibition)
Description: Diet cubes coated with paraffin were sprayed with diluted test solutions in an application chamber. After drying off the treated cubes (10 replicates) were infested with 1 L1 larvae. Samples were incubated at 26-27° C. and checked 14 days after infestation for mortality and growth inhibition. The following compounds gave an effect of at least 80% in at least one of the two categories (mortality or growth inhibition) at an application rate of 50 ppm: […]

Myzus persicae [7] = experiment: Example B7a: Myzus persicae feeding/contact activity, sunflower leaf discs; conditions: foliar, 144 h, mixed ages, 6 days after infestation
Description: (§2) Sunflower leaf discs were placed onto agar in a 24-well microtiter plate and sprayed with aqueous test solutions prepared from 10′000 ppm DMSO stock solutions. After drying, the leaf discs were infested with an aphid population of mixed ages. The samples were assessed for mortality 6 days after infestation.

Myzus persicae [8] = experiment: Example B7b: Myzus persicae feeding/contact activity, eggplant leaf discs; conditions: foliar, 144 h, mixed ages, 6 days after infestation
Description: as §2, with “Eggplant” for “Sunflower”

SMILES	mortality at 3.12 ppm (Chilo suppressalis)	percent control (mortality, anti-feedant effect or growth inhibition) at 200 ppm (Chilo suppressalis)	percent effect (mortality or growth inhibition) at 200 ppm (Plutella xylostella [1])	mortality at 3.12 ppm (Spodoptera littoralis)	percent control (mortality, anti-feedant effect or growth inhibition) at 200 ppm (Spodoptera littoralis)	mortality at 0.8 ppm (Plutella xylostella [2])	mortality at 3 ppm (Plutella xylostella [2])	mortality at 0.8 ppm (Diabrotica balteata [3])	mortality at 12 ppm (Myzus persicae [4])	percent effect (mortality or growth inhibition) at 200 ppm (Diabrotica balteata [5])	mortality at 200 ppm (Euschistus heros)	percent effect (mortality or growth inhibition) at 200 ppm (Euschistus heros)	percent effect (mortality or growth inhibition) at 50 ppm (Pseudoplusia includens)	mortality at 0.8 ppm (Pseudoplusia includens; Pseudoplusia includens, 0.8 ppm)	mortality at 12.5 ppm (Pseudoplusia includens; Pseudoplusia includens)	mortality at 200 ppm (Tetranychus urticae)	percent effect (mortality or growth inhibition) at 50 ppm [6]	mortality at 200 ppm (Myzus persicae [7])	mortality at 3 ppm (Pseudoplusia includens; Pseudoplusia includens, 3 ppm)	mortality at 200 ppm (Myzus persicae [8])
C[C@H](Nc1ncnc2c(C(F)(F)F)cc(Cl)cc12)c1ncnn1-c1cc(C(N)=O)ncn1 [Compound P5, 6-[5-[(1S)-1-[[6-chloro-8-(trifluoromethyl)quinazolin-4-yl]amino]ethyl]-1,2,4-triazol-1-yl]pyrimidine-4-carboxamide]	80%	≥ 80%	≥ 80%	100%	≥ 80%	95%	100%	100%	≥ 80%	≥ 80%	100%	≥ 80%	≥ 80%	70%	100%					
C[C@H](Nc1ncnc2c(I)cc(Cl)cc12)c1ncnn1-c1cc(C(N)=O)ncn1 [Compound P13, 6-[5-[(1S)-1-[(6-chloro-8-iodo-quinazolin-4-yl)amino]ethyl]-1,2,4-triazol-1-yl]pyrimidine-4-carboxamide]		≥ 80%	≥ 80%		≥ 80%				≥ 80%	≥ 80%			≥ 80%			≥ 80%	≥ 80%	≥ 80%		
C[C@H](Nc1ncnc2c(Cl)cc(C(F)(F)F)cc12)c1ncnn1-c1cc(C(N)=O)ncn1 [Compound P17, 6-[5-[(1S)-1-[[8-chloro-6-(trifluoromethyl)quinazolin-4-yl]amino]ethyl]-1,2,4-triazol-1-yl]pyrimidine-4-carboxamide]	40%	≥ 80%	≥ 80%	100%	≥ 80%	100%	100%	100%	≥ 80%	≥ 80%	80%	≥ 80%	≥ 80%		100%	≥ 80%	≥ 80%		80%	
C[C@H](Nc1ncnc2c(C(F)(F)F)cc(Cl)cc12)c1ncnn1-c1cnc(C(N)=O)cn1 [Compound P21, 5-[5-[(1S)-1-[[6-chloro-8-(trifluoromethyl)quinazolin-4-yl]amino]ethyl]-1,2,4-triazol-1-yl]pyrazine-2-carboxamide]	0%	≥ 80%	≥ 80%	100%	≥ 80%		100%	65%	≥ 80%	≥ 80%			≥ 80%		40%					≥ 80%
C[C@H](Nc1ncnc2c(C(F)(F)F)cc(C(F)(F)F)cc12)c1ncnn1-c1ccc(C(N)=O)cn1 [WO 21/083936 P.157, reference compound]	0%			0%			65%	35%							10%					
